Measured values from the supplement of paper PMC11061612.

Tests used:
AZD1390 = compound: CC(C)n1c(=O)n(C)c2cnc3cc(F)c(-c4ccc(OCCCN5CCCCC5)nc4)cc3c21 [AZD1390]; settings: max 0.3 µM
How it was run: (§1)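 Following 24 hours at 37°C and 5% CO2, cancer cell lines in 1536-well plates with 7.5 μl DMEM/F12 or RPMI and 10% FBS were dosed for 72 hours, final DMSO typically being 0.2%. CellTiter-Glo 2.0 luminescence, scaled between blank-well and DMSO-well means, gave the viability readout. Dose responses were fitted to a two-parameter logistic curve with a non-linear mixed effects model, and the single-agent IC50 was derived from this fit.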

Palbociclib = compound: CC(=O)c1c(C)c2cnc(Nc3ccc(N4CCNCC4)cn3)nc2n(C2CCCC2)c1=O [Palbociclib]; settings: max 10 µM
How it was run: as §1

Venetoclax = compound: CC1(C)CCC(CN2CCN(c3ccc(C(=O)NS(=O)(=O)c4ccc(NCC5CCOCC5)c([N+](=O)[O-])c4)c(Oc4cnc5[nH]ccc5c4)c3)CC2)=C(c2ccc(Cl)cc2)C1 [Venetoclax]; settings: max 1 µM
How it was run: as §1

Doxorubicin = compound: COc1cccc2c1C(=O)c1c(O)c3c(c(O)c1C2=O)C[C@@](O)(C(=O)CO)C[C@@H]3O[C@H]1C[C@H](N)[C@H](O)[C@H](C)O1 [Doxorubicin]; settings: max 1 µM
How it was run: as §1

AZD5991 = compound: Cc1c2c(nn1C)CSCc1cc(n(C)n1)CSc1cc(c3ccccc3c1)OCCCc1c(C(=O)O)n(C)c3c-2c(Cl)ccc13 [AZD5991]; settings: max 1 µM
How it was run: as §1

Alisertib = compound: COc1cc(Nc2ncc3c(n2)-c2ccc(Cl)cc2C(c2c(F)cccc2OC)=NC3)ccc1C(=O)O [Alisertib]; settings: max 10 µM
How it was run: as §1

Crizotinib = compound: C[C@@H](Oc1cc(-c2cnn(C3CCNCC3)c2)cnc1N)c1c(Cl)ccc(F)c1Cl [Crizotinib]; settings: max 10 µM
How it was run: as §1

AZD0156 = compound: CN(C)CCCOc1ccc(-c2ccc3ncc4c(c3c2)n(C2CCOCC2)c(=O)n4C)cn1 [AZD0156]
How it was run: as §1

Selumetinib = compound: Cn1cnc2c(F)c(Nc3ccc(Br)cc3Cl)c(C(=O)NOCCO)cc21 [Selumetinib]
How it was run: as §1

Prexasertib = compound: COc1cccc(OCCCN)c1-c1cc(Nc2cnc(C#N)cn2)n[nH]1 [Prexasertib]; settings: max 1 µM
How it was run: as §1

AZD4320 = compound: CN(CC[C@H](CSC1=CC=CC=C1)NC2=C(C=C(C=C2)S(=O)(=O)NC(=O)C3=CC=C(C=C3)N4CCC(CC4)[C@H](C5=CC=CC=C5C6=CC=C(C=C6)Cl)O)S(=O)(=O)C(F)(F)F)CCO [AZD4320]; settings: max 1 µM
How it was run: as §1

AZD8186 = compound: C[C@@H](Nc1cc(F)cc(F)c1)c1cc(C(=O)N(C)C)cc2c(=O)cc(N3CCOCC3)oc12 [AZD8186]; settings: max 3 µM
How it was run: as §1

AZD1775 = compound: C=CCn1c(=O)c2cnc(Nc3ccc(N4CCN(C)CC4)cc3)nc2n1-c1cccc(C(C)(C)O)n1 [AZD1775]
How it was run: as §1

AZD7648 = compound: Cc1cc2ncnn2cc1Nc1ncc2c(n1)n(C1CCOCC1)c(=O)n2C [AZD7648]; settings: max 10 µM
How it was run: as §1

Dasatinib = compound: CC1=C(C(=CC=C1)Cl)NC(=O)C2=CN=C(S2)NC3=CC(=NC(=N3)C)N4CCN(CC4)CCO [Dasatinib]; settings: max 2 µM
How it was run: as §1

Olaparib = compound: O=C(c1cc(Cc2n[nH]c(=O)c3ccccc23)ccc1F)N1CCN(C(=O)C2CC2)CC1 [Olaparib]
How it was run: as §1

Taselisib = compound: Cc1nc(-c2cn3c(n2)-c2ccc(-c4cnn(C(C)(C)C(N)=O)c4)cc2OCC3)n(C(C)C)n1 [Taselisib]; settings: max 10 µM
How it was run: as §1

Gefitinib = compound: COc1cc2ncnc(Nc3ccc(F)c(Cl)c3)c2cc1OCCCN1CCOCC1 [Gefitinib]; settings: max 10 µM
How it was run: as §1

SN-38 = compound: CCc1c2c(nc3ccc(O)cc13)-c1cc3c(c(=O)n1C2)COC(=O)[C@]3(O)CC [SN-38]; settings: max 0.3 µM
How it was run: as §1

Savolitinib = compound: C[C@@H](c1ccc2nccn2c1)n1nnc2ncc(-c3cnn(C)c3)nc21 [Savolitinib]; settings: max 1 µM
How it was run: as §1

Trametinib = compound: CC(=O)Nc1cccc(-n2c(=O)n(C3CC3)c(=O)c3c(Nc4ccc(I)cc4F)n(C)c(=O)c(C)c32)c1 [Trametinib]; settings: max 1 µM
How it was run: as §1

AZD6738 = compound: C[C@@H]1COCCN1C2=NC(=NC(=C2)C3(CC3)[S@](=N)(=O)C)C4=C5C=CNC5=NC=C4 [AZD6738]; settings: max 10 µM
How it was run: as §1

AZD5153 = compound: COc1nnc2ccc(N3CCC(c4ccc(OCCN5CCN(C)C(=O)[C@H]5C)cc4)CC3)nn12 [AZD5153]; settings: max 1 µM
How it was run: as §1

Capivasertib = compound: C1CN(CCC1(C(=O)N[C@@H](CCO)C2=CC=C(C=C2)Cl)N)C3=NC=NC4=C3C=CN4 [Capivasertib]
How it was run: as §1

SG3199 = compound: CC1=CN2[C@@H](C1)C=NC3=CC(=C(C=C3C2=O)OC)OCCCCCOC4=C(C=C5C(=C4)N=C[C@@H]6CC(=CN6C5=O)C)OC [SG3199]; settings: max 0.001 µM
How it was run: as §1

AZD2811 = compound: CCN(CCO)CCCOc1ccc2c(Nc3cc(CC(=O)Nc4cccc(F)c4)[nH]n3)ncnc2c1 [AZD2811]; settings: max 1 µM
How it was run: as §1

Lapatinib = compound: CS(=O)(=O)CCNCc1ccc(-c2ccc3ncnc(Nc4ccc(OCc5cccc(F)c5)c(Cl)c4)c3c2)o1 [Lapatinib]; settings: max 10 µM
How it was run: as §1

Row | Cell Line | IC50, cell viability 72 h (AZD1390) | IC50, cell viability 72 h (Palbociclib) | IC50, cell viability 72 h (Venetoclax) | IC50, cell viability 72 h (Doxorubicin) | IC50, cell viability 72 h (AZD5991) | IC50, cell viability 72 h (Alisertib) | IC50, cell viability 72 h (Crizotinib) | IC50, cell viability 72 h (AZD0156; max 3 µM) | IC50, cell viability 72 h (Selumetinib; max 10 µM) | IC50, cell viability 72 h (Prexasertib) | IC50, cell viability 72 h (AZD4320) | IC50, cell viability 72 h (AZD8186) | IC50, cell viability 72 h (AZD1775; max 3 µM) | IC50, cell viability 72 h (AZD7648) | IC50, cell viability 72 h (Dasatinib) | IC50, cell viability 72 h (Olaparib; max 10 µM) | IC50, cell viability 72 h (Taselisib) | IC50, cell viability 72 h (Gefitinib) | IC50, cell viability 72 h (SN-38) | IC50, cell viability 72 h (Savolitinib) | IC50, cell viability 72 h (Trametinib) | IC50, cell viability 72 h (AZD6738) | IC50, cell viability 72 h (AZD5153) | IC50, cell viability 72 h (Capivasertib; max 10 µM) | IC50, cell viability 72 h (SG3199) | IC50, cell viability 72 h (AZD2811) | IC50, cell viability 72 h (Lapatinib) | IC50, cell viability 72 h (Olaparib; max 3 µM) | IC50, cell viability 72 h (Capivasertib; max 3 µM) | IC50, cell viability 72 h (AZD0156; max 1 µM) | IC50, cell viability 72 h (Selumetinib; max 3 µM) | IC50, cell viability 72 h (AZD1775; max 1 µM)
1 | HT-1197 (Bladder Carcinoma) | > 300 nM | > 10000 nM | > 1000 nM | > 1000 nM | > 1000 nM | > 10000 nM | > 10000 nM | > 3000 nM | > 10000 nM | > 1000 nM | > 1000 nM | > 3000 nM | 2150 nM | > 10000 nM | > 2000 nM | > 10000 nM | 2890 nM | > 10000 nM | > 300 nM | > 1000 nM | > 1000 nM | > 10000 nM | 697 nM | > 10000 nM | > 1 nM | > 1000 nM | > 10000 nM | – | – | – | – | –
2 | IGROV-1 (Ovarian Carcinoma) | > 300 nM | 5560 nM | > 1000 nM | 924 nM | > 1000 nM | 1630 nM | 9830 nM | > 3000 nM | 1070 nM | 54 nM | > 1000 nM | 1320 nM | 191 nM | > 10000 nM | 16.9 nM | > 10000 nM | 17.2 nM | 1550 nM | 177 nM | > 1000 nM | 19.6 nM | 2900 nM | 390 nM | 438 nM | > 1 nM | > 1000 nM | 764 nM | – | – | – | – | –
3 | JURL-MK1 (Chronic Myelogenous Leukemia) | > 300 nM | 248 nM | > 1000 nM | 115 nM | 778 nM | 297 nM | 320 nM | > 3000 nM | 339 nM | 2.55 nM | 322 nM | > 3000 nM | 85.1 nM | > 10000 nM | < 2 nM | > 10000 nM | > 10000 nM | > 10000 nM | 9.8 nM | > 1000 nM | 5.76 nM | 228 nM | 61.3 nM | > 10000 nM | > 1 nM | > 1000 nM | > 10000 nM | – | – | – | – | –
4 | M14 (Melanoma) | – | – | – | – | – | – | – | > 3000 nM | – | – | – | – | 624 nM | – | – | – | – | – | – | – | – | – | – | – | – | – | – | > 3000 nM | > 3000 nM | – | – | –
5 | NCI-H1048 (Small Cell Lung Carcinoma) | > 300 nM | > 10000 nM | > 1000 nM | 261 nM | – | 497 nM | > 10000 nM | > 3000 nM | > 10000 nM | 132 nM | 505 nM | > 3000 nM | 798 nM | > 10000 nM | > 2000 nM | > 10000 nM | 348 nM | > 10000 nM | 2.99 nM | > 1000 nM | > 1000 nM | > 10000 nM | > 1000 nM | 9210 nM | > 1 nM | 323 nM | > 10000 nM | – | – | – | – | –
6 | NCI-H1975 (Lung Adenocarcinoma) | > 300 nM | > 10000 nM | > 1000 nM | 497 nM | > 1000 nM | > 10000 nM | > 10000 nM | > 3000 nM | > 10000 nM | > 1000 nM | > 1000 nM | > 3000 nM | 1620 nM | > 10000 nM | 1010 nM | > 10000 nM | 1220 nM | > 10000 nM | > 300 nM | > 1000 nM | > 1000 nM | > 10000 nM | 359 nM | 3840 nM | > 1 nM | > 1000 nM | > 10000 nM | – | – | – | – | –
7 | NCI-H2170 (Squamous Cell Lung Carcinoma) | > 300 nM | > 10000 nM | > 1000 nM | 539 nM | > 1000 nM | 1100 nM | 7380 nM | > 3000 nM | > 10000 nM | 46.8 nM | 665 nM | > 3000 nM | 678 nM | > 10000 nM | > 2000 nM | > 10000 nM | 1540 nM | 1980 nM | 13.6 nM | > 1000 nM | > 1000 nM | 7670 nM | > 1000 nM | 5470 nM | > 1 nM | 391 nM | 362 nM | – | – | – | – | –
8 | RVH-421 (Melanoma) | – | – | > 1000 nM | > 1000 nM | > 1000 nM | > 10000 nM | – | – | – | > 1000 nM | > 1000 nM | 3000 nM | – | > 10000 nM | – | > 10000 nM | > 10000 nM | – | > 300 nM | – | > 1000 nM | > 10000 nM | – | – | > 1 nM | > 1000 nM | – | – | > 3000 nM | > 1000 nM | > 3000 nM | > 1000 nM
9 | TK (B-Cell Non-Hodgkin's Lymphoma) | > 300 nM | > 10000 nM | 46.2 nM | > 1000 nM | > 1000 nM | 2790 nM | > 10000 nM | > 3000 nM | > 10000 nM | 10.8 nM | – | > 3000 nM | 293 nM | > 10000 nM | > 2000 nM | > 10000 nM | > 10000 nM | > 10000 nM | 16.7 nM | > 1000 nM | > 1000 nM | 1020 nM | > 1000 nM | > 10000 nM | > 1 nM | > 1000 nM | > 10000 nM | – | – | – | – | –
